Among the data in paper PMC6222706, “Evaluation of the Antioxidant and Neuroprotectant Activities of New Asymmetrical 1,3-Diketones” (Molecules : A Journal of Synthetic Chemistry and Natural …, 2018) are MMP recovery and FLA-1/FLA-2 ratio values, retold here.

The subject of assay [1] is SH-SY5Y cells. Description: Mitochondrial membrane potential (JC-1, microplate reader) in SH-SY5Y cells under H2O2. The conditions noted are these: SH-SY5Y, compound at different concentrations for 24 h, then 200 µM H2O2 for 24 h, JC-1. Format: cell-based, human. How it is done: To know whether β-diketones 6b and 7b will protect the mitochondrial membrane from depolarization under oxidative stress conditions, MMP experiments were carried out with the cationic dye JC-1 (5,5′,6,6′-tetrachloro-1,1′,3,3′-tetraethylbenzimi-dazolylcarbocyanine iodide). JC-1 enters selectively into mitochondria and reversibly change color from red to green as the membrane potential decrease. In healthy cells, JC-1 forms red fluorescent J-aggregates while in apoptotic cells with low MMP, JC-1 remains as monomers with green fluorescence. The ratio of J-aggregates to J-monomers is an indication of healthy non-apoptotic cells.
The fluorescent dye 5,5′,6,6′-tetrachloro-1,1′,3,3′-tetraethylbenzimidazolylcarbocyanine iodide (JC-1) was used for measuring MMP [111]. A decrease in fluorescence intensity represents mitochondrial membrane depolarization. For fluorescence ratio detection under oxidative stress conditions, 96 well plates were seeded with 3 × 10^3 SH-SY5Y cells and after 24 h incubation they were treated with test compound and left out for 24 h. Then, cells were exposed to different H2O2 concentrations for 24 h. After the incubation period, cells were washed twice with Hanks buffer and then stained with 5 µM JC-1 in culture media in dark, in a CO2 incubator at 37 °C for 20 min. At the end of the dye incubation period, cells were washed three times with Hanks buffer and 200 µL of fresh buffer was added. Cells were analyzed with a Varioskan microplate reader. J-aggregates red fluorescence intensity was measured at 535 nm excitation and 595 nm emission wavelength, while excitation at 485 nm and emission 535 nm wavelength was used for J-monomers green fluorescence. Results were expressed as the ratio of fluorescence intensity of J-aggregates to J-monomers. […] JC-1 aggregates show red fluorescence (peak emission at 590 nm) measured in the FL2 channel. Thus, healthy non-apoptotic cells are detected in both FL1 and FL2 channels, while cells with disrupted mitochondrial function show fluorescence in FL1 channel but reduced FL2 intensity.

In assay [2] the test system is SH-SY5Y cells. The experiment in a line: Mitochondrial membrane potential by flow cytometry (JC-1) in SH-SY5Y cells under H2O2. The format is cell-based, human. The conditions noted are these: 7b for 24 h, then 400 µM H2O2 for 4 h, JC-1 flow cytometry. As for the experimental part:
To confirm this MMP recovery results, flow cytometry experiments were carried out with compound 7b and SH-SY5Y cells. Cells were treated with 7b for 24 h and then were exposed to 400 µM H2O2 for 4 h. JC-1 was used as fluorescence indicator of MMP state. In flow cytometry studies of MMP, JC-1 is excited at 488 nm wavelength. Both JC-1 aggregates and monomers show green fluorescence (peak emission at 527 nm) measured in the FL1 channel. […] Thus, healthy non-apoptotic cells are detected in both FL1 and FL2 channels, while cells with disrupted mitochondrial function show fluorescence in FL1 channel but reduced FL2 intensity. […] From these flow cytometry experiments, we can confirm that after compound 7b treatment there is a significant MMP recovery in SH-SY5Y cells under oxidative stress pressure.
For MMP flow cytometry studies, 10^5 SH-SY5Y cells were seeded in 6 well plates. After 24 h, cells were treated with test compound and incubated for other 24 h. After the treatment period, cells were exposed to H2O2 for 4 h. Then, cells were washed twice with Hanks buffer and stained with 5 µM JC-1 in culture media in dark, in a CO2 incubator at 37 °C for 20 min. After the staining period, cells were washed three times with Hanks buffer, collected and resuspended in 500 µL culture media. Data were obtained and analyzed using an Accuri C6 flow cytometer (BD Biosciences, Ann Arbour, MI, USA). […]
(Flow cytometry measures light scatter and fluorescence of single cells or particles in a stream.)

On to `O=C(/C=C(O)/C=C/c1cc(F)c(O)cc1F)C(F)(F)F` [Compound 6b, (3Z,5E)-6-(2,5-difluoro-4-hydroxyphenyl)-1,1,1-trifluoro-4-hydroxyhexa-3,5-dien-2-one], for which, in the assay on SH-SY5Y cells [1], the MMP recovery is on record as 18–25%. Turning to `O=C(/C=C(O)/C=C/c1ccc(O)c(F)c1F)C(F)(F)F` [Compound 7b, (3Z,5E)-6-(2,3-Difluoro-4-hydroxyphenyl)-1,1,1-trifluoro-4-hydroxyhexa-3,5-dien-2-one], in the assay with SH-SY5Y cells [1], the MMP recovery was 18–25%. For the same compound, the FLA-1/FLA-2 ratio result with SH-SY5Y cells [2] is “significant reduction of that ratio”.
